Data published in PubChem BioAssay AID256 (DTP/NCI, 2004).
Several values for one entry are separate records, joined by “and”; a condition that tells them apart may be missing. Identical values can stand only once. Toxic doses and inconclusive results are not listed.

System: CD2F1 mice, L1210 leukemia ip, survival T/C
Experiment: NCI In Vivo Anticancer Drug Screen. Data for tumor model L1210 Leukemia (intraperitoneal) in CD2F1 (CDF1) mice
Conditions: endpoint: mean survival time, higher = longer survival
In short: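 Tumor-bearing mice (transplanted tumor) were split into treated and vehicle control groups, and the measured endpoint of each treated group was divided by that of its vehicle controls.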

[1] = dose: 50.0 mg/kg/injection, schedule: Q01DX009 (ip), vehicle: saline with Tween-80
[2] = dose: 100.0 mg/kg/injection, schedule: Q01DX009 (ip), vehicle: saline with Tween-80
[3] = dose: 100.0 mg/kg/injection, schedule: Q04DX003 (ip), vehicle: saline with Tween-80
[4] = dose: 200.0 mg/kg/injection, schedule: Q01DX009 (ip), vehicle: saline with Tween-80
[5] = dose: 200.0 mg/kg/injection, schedule: Q04DX003 (ip), vehicle: saline with Tween-80
[6] = dose: 100.0 mg/kg/injection, schedule: Q01DX001 (ip), vehicle: saline
[7] = dose: 200.0 mg/kg/injection, schedule: Q01DX001 (ip), vehicle: saline
[8] = dose: 200.0 mg/kg/injection, schedule: Q04DX003 (ip), vehicle: saline
[9] = dose: 400.0 mg/kg/injection, schedule: Q04DX003 (ip), vehicle: saline
[10] = dose: 400.0 mg/kg/injection, schedule: Q04DX003 (ip), vehicle: saline with Tween-80

`NCCOC(=O)/C=C/c1ccccc1` was tested, and the T/C (dose: 100.0 mg/kg/injection, schedule: Q01DX009 (ip), vehicle: saline) was 93 % of control and the T/C (dose: 200.0 mg/kg/injection, schedule: Q01DX009 (ip), vehicle: saline) was 97 % of control.

`Cc1cc(OCC2=NCCN2)c(C)c(C)c1Cl` was tested, and the T/C (dose: 6.25 mg/kg/injection, schedule: Q04DX002 (ip), vehicle: saline with Tween-80) was 94 % of control, the T/C (dose: 12.5 mg/kg/injection, schedule: Q04DX002 (ip), vehicle: saline with Tween-80) was 94 % of control and the T/C (dose: 25.0 mg/kg/injection, schedule: Q04DX002 (ip), vehicle: saline with Tween-80) was 97 % of control.

With `CC(=O)Nc1ccccc1OC(=O)c1ccccc1` the T/C [1] was 97 % of control, the T/C [2] was 97 % of control and the T/C [3] was 101 % of control. The T/C [4] was 97 % of control and the T/C [5] was 95 % of control.

With `CCOC(=O)c1c(C)c2c(n1C)CCCC2=O` the T/C (dose: 100.0 mg/kg/injection, schedule: Q04DX002 (ip), vehicle: saline with Tween-80) was 93 % of control, the T/C (dose: 200.0 mg/kg/injection, schedule: Q04DX002 (ip), vehicle: saline with Tween-80) was 89 % of control and the T/C (dose: 400.0 mg/kg/injection, schedule: Q04DX002 (ip), vehicle: saline with Tween-80) was 86 % of control.

In the case of `NCc1cccn1OCc1ccccc1`, the T/C (dose: 25.0 mg/kg/injection, schedule: Q01DX009 (ip), vehicle: Klucel (hydroxypropylcellulose) (HPC)) is reported as 96 % of control, the T/C (dose: 50.0 mg/kg/injection, schedule: Q01DX009 (ip), vehicle: Klucel (hydroxypropylcellulose) (HPC)) is reported as 96 % of control and the T/C (dose: 100.0 mg/kg/injection, schedule: Q01DX009 (ip), vehicle: Klucel (hydroxypropylcellulose) (HPC)) is reported as 107 % of control.

With `CCOC(=O)Nc1cc([N+](C)(C)C)ccc1OCCOc1ccc([N+](C)(C)C)cc1` the T/C (dose: 0.15 mg/kg/injection, schedule: Q04DX003 (ip), vehicle: Klucel (hydroxypropylcellulose) (HPC)) was 100 % of control, the T/C (dose: 0.3 mg/kg/injection, schedule: Q04DX003 (ip), vehicle: Klucel (hydroxypropylcellulose) (HPC)) was 90 % of control and the T/C (dose: 0.6 mg/kg/injection, schedule: Q04DX003 (ip), vehicle: Klucel (hydroxypropylcellulose) (HPC)) was 100 % of control.

For `COc1ccc(Cc2cncc3cc(OC)c(OC)cc23)cc1OC`, the T/C [6] was 101 % of control and the T/C [7] was 96 % of control.

For `O=C(O)c1cccc([N+](=O)[O-])c1C(=O)c1ccccc1`, the T/C [2] was 107 % of control and the T/C [4] was 102 % of control.

In the case of `CC1CCC2(C)CCC3(C)C4=CCC5C(C)(C)C(O)CCC5(C)C4CCC3(C)C2C1C` (configuration not stated), the T/C [8] is reported as 89 % of control and the T/C [9] is reported as 96 % of control.

For `Cc1cc2oc(=O)c(Cl)c(NCCO)c2c(C)c1Cl`, the T/C (dose: 100.0 mg/kg/injection, schedule: Q01DX001 (ip), vehicle: saline with Tween-80) was 98 % of control, the T/C (dose: 200.0 mg/kg/injection, schedule: Q01DX001 (ip), vehicle: saline with Tween-80) was 98 % of control and the T/C (dose: 400.0 mg/kg/injection, schedule: Q01DX001 (ip), vehicle: saline with Tween-80) was 93 % of control.

With `CCCCCCCCCCCCCC[n+]1ccccc1` the T/C (dose: 0.07 mg/kg/injection, schedule: Q01DX009 (ip), vehicle: saline) was 93 % of control, the T/C (dose: 0.13 mg/kg/injection, schedule: Q01DX009 (ip), vehicle: saline) was 101 % of control and the T/C (dose: 0.25 mg/kg/injection, schedule: Q01DX009 (ip), vehicle: saline) was 103 % of control. For the same compound, the T/C (dose: 0.25 mg/kg/injection, schedule: Q04DX003 (ip), vehicle: saline sonified) was 102 % of control.

For `COC/C(=N/Nc1ccc([N+](=O)[O-])cc1[N+](=O)[O-])c1ccccc1`, the T/C [3] was 102 % of control, the T/C [5] was 108 % of control and the T/C [10] was 100 % of control.

`O=C1c2ccccc2C(=O)c2cc(S(=O)(=O)O)ccc21` was tested, and the T/C (dose: 100.0 mg/kg/injection, schedule: Q01DX001 (ip), vehicle: Klucel (hydroxypropylcellulose) (HPC)) was 104 % of control, the T/C [2] was 98 % of control and the T/C (dose: 200.0 mg/kg/injection, schedule: Q01DX001 (ip), vehicle: Klucel (hydroxypropylcellulose) (HPC)) was 96 % of control. For the same compound, the T/C [4] was 90 % of control, the T/C (dose: 400.0 mg/kg/injection, schedule: Q01DX001 (ip), vehicle: Klucel (hydroxypropylcellulose) (HPC)) was 104 % of control and the T/C (dose: 400.0 mg/kg/injection, schedule: Q01DX009 (ip), vehicle: saline with Tween-80) was 90 % of control.

With `COc1ccc(-c2c(C(=O)O)cc(O)c3cc(OC)c(OC)cc23)cc1OC` the T/C [6] was 97 % of control, the T/C [7] was 97 % of control and the T/C (dose: 400.0 mg/kg/injection, schedule: Q01DX001 (ip), vehicle: saline) was 92 % of control.

In the case of `CC(c1ccccc1)n1cncc1C(=O)N1CCN(C)CC1` (configuration not stated), the T/C (dose: 25.0 mg/kg/injection, schedule: Q01DX009 (ip), vehicle: saline with Tween-80) is reported as 105 % of control, the T/C [1] is reported as 96 % of control and the T/C [2] is reported as 94 % of control and 95 % of control. The T/C [3] was 92 % of control, the T/C [5] was 91 % of control and the T/C [10] was 97 % of control.

In the case of `Cc1nc(C)c(C(=O)O)cc1C(=O)O`, the T/C (dose: 100.0 mg/kg/injection, schedule: Q04DX003 (ip), vehicle: saline) is reported as 102 % of control, the T/C [8] is reported as 96 % of control and the T/C [9] is reported as 98 % of control.

In the case of `c1ccc2sc(NN=c3c4ccccc4sc4ccccc34)nc2c1`, the T/C (dose: 75.0 mg/kg/injection, schedule: Q01DX001 (ip), vehicle: other) is reported as 107 % of control, the T/C (dose: 150.0 mg/kg/injection, schedule: Q01DX001 (ip), vehicle: other) is reported as 100 % of control and the T/C (dose: 300.0 mg/kg/injection, schedule: Q01DX001 (ip), vehicle: other) is reported as 94 % of control.

For `Nc1ccn(C2OC(COP(=O)(O)O)C(O)C2O)c(=O)n1` (configuration not stated), the T/C (dose: 4.0 mg/kg/injection, schedule: Q03HX024 (ip), vehicle: saline) was 337 % of control, the T/C (dose: 8.0 mg/kg/injection, schedule: Q01DX008 (ip), vehicle: saline) was 176 % of control and the T/C (dose: 8.0 mg/kg/injection, schedule: Q03HX024 (ip), vehicle: saline) was 302 % of control. For the same compound, the T/C (dose: 16.0 mg/kg/injection, schedule: Q01DX008 (ip), vehicle: saline) was 183 % of control, the T/C (dose: 16.0 mg/kg/injection, schedule: Q01DX009 (ip), vehicle: saline) was 185 % of control and the T/C (dose: 16.0 mg/kg/injection, schedule: Q03HX024 (ip), vehicle: saline) was 487 % of control. For the same compound, the T/C (dose: 16.0 mg/kg/injection, schedule: Q03HX024 (oral), vehicle: saline) was 228 % of control, the T/C (dose: 32.0 mg/kg/injection, schedule: Q01DX008 (ip), vehicle: saline) was 173 % of control and the T/C (dose: 32.0 mg/kg/injection, schedule: Q01DX009 (ip), vehicle: saline) was 215 % of control. For the same compound, the T/C (dose: 32.0 mg/kg/injection, schedule: Q03HX024 (ip), vehicle: saline) was 240 % of control, the T/C (dose: 32.0 mg/kg/injection, schedule: Q03HX024 (oral), vehicle: saline) was 266 % of control and the T/C (dose: 64.0 mg/kg/injection, schedule: Q01DX001 (ip), vehicle: saline) was 121 % of control. The T/C (dose: 64.0 mg/kg/injection, schedule: Q01DX008 (ip), vehicle: saline) was 155 % of control, the T/C (dose: 64.0 mg/kg/injection, schedule: Q01DX008 (oral), vehicle: saline) was 156 % of control and the T/C (dose: 64.0 mg/kg/injection, schedule: Q01DX009 (ip), vehicle: saline) was 212 % of control. For the same compound, the T/C (dose: 64.0 mg/kg/injection, schedule: Q03HX024 (oral), vehicle: saline) was 300 % of control, the T/C (dose: 128.0 mg/kg/injection, schedule: Q01DX001 (ip), vehicle: saline) was 117 % of control and the T/C (dose: 128.0 mg/kg/injection, schedule: Q01DX001 (oral), vehicle: saline) was 106 % of control. For the same compound, the T/C (dose: 128.0 mg/kg/injection, schedule: Q01DX008 (oral), vehicle: saline) was 167 % of control, the T/C (dose: 128.0 mg/kg/injection, schedule: Q01DX009 (oral), vehicle: saline) was 155 % of control and the T/C (dose: 128.0 mg/kg/injection, schedule: Q03HX024 (oral), vehicle: saline) was 155 % of control. The T/C (dose: 128.0 mg/kg/injection, schedule: Q04DX003 (oral), vehicle: saline) was 120 % of control, the T/C (dose: 256.0 mg/kg/injection, schedule: Q01DX001 (ip), vehicle: saline) was 112 % of control and the T/C (dose: 256.0 mg/kg/injection, schedule: Q01DX001 (oral), vehicle: saline) was 107 % of control. For the same compound, the T/C (dose: 256.0 mg/kg/injection, schedule: Q01DX009 (oral), vehicle: saline) was 172 % of control, the T/C (dose: 256.0 mg/kg/injection, schedule: Q04DX003 (oral), vehicle: saline) was 121 % of control and the T/C (dose: 512.0 mg/kg/injection, schedule: Q01DX001 (oral), vehicle: saline) was 109 % of control. The T/C (dose: 512.0 mg/kg/injection, schedule: Q01DX009 (oral), vehicle: saline) was 182 % of control, the T/C (dose: 1024.0 mg/kg/injection, schedule: Q01DX001 (oral), vehicle: saline) was 155 % of control and the T/C (dose: 1024.0 mg/kg/injection, schedule: Q01DX009 (oral), vehicle: saline) was 104 % of control. For the same compound, the T/C (dose: 1024.0 mg/kg/injection, schedule: Q04DX003 (oral), vehicle: saline) was 164 % of control.
